The values that follow come from ChEMBL document CHEMBL1126754, “Hydroxyurea derivatives as hypoglycemic agents” (1993).

The test system of assay [1] is Mus musculus. Put plainly: In vivo ability to lower blood glucose in the ob/ob mouse model at a dose of 5 mg/kg. It counts as functional.
The subject of assay [2] is 3T3-L1. In words: Effect on GLUT 1 glucose transporter expression in 3T3-L1 adipocytes at dose of 30 uM. It counts as functional, Mus musculus.
In assay [3] the test system is Mus musculus. Put plainly: In vivo ability to lower blood glucose in the ob/ob mouse model at a dose of 1 mg/kg. It counts as functional.
In assay [4] the test system is Mus musculus. In words: In vivo ability to lower blood glucose in the ob/ob mouse model at a dose of 25 mg/kg. It counts as functional.
The subject of assay [5] is 3T3-L1. In words: Effect on GLUT 1 glucose transporter expression in 3T3-L1 adipocytes at dose of 0.3 uM. Format: functional, Mus musculus.
For assay [6], the system named is 3T3-L1. Put plainly: Effect on GLUT 1 glucose transporter expression in 3T3-L1 adipocytes at dose of 3 uM. Format: functional, Mus musculus.
Assay [7] has as its system Mus musculus. In words: In vivo ability to lower blood glucose in the ob/ob mouse model at a dose of 10 mg/kg. It counts as functional.

With `CCOC(=O)ON(Cc1ccc(OCCc2nc(-c3ccccc3)oc2C)cc1)C(N)=O`, the Glucose normalisation in the assay on Mus musculus [1] is on record as 52%.
The compound `CNC(=O)N(Cc1ccc(OCCc2nc(-c3ccccc3)oc2C)cc1)OC(=O)OC` showed a Glucose normalisation in the assay with Mus musculus [1] of 25%.
Compound `CCCCCc1ccc(C(=O)N[C@H]2N=C(c3ccccc3)c3ccccc3N(C)C2=O)cc1` returned a Glucose normalisation in the assay on Mus musculus [1] of 50%.
In turn, `CC1(COc2ccc(CC3SC(=O)NC3=O)cc2)CCCCC1` (configuration not stated) [CIGLITAZONE] returned an Effect with 3T3-L1 [2] of 151.3%.
As for `Cc1oc(-c2ccccc2)nc1CCOc1ccc(Cn2oc(=O)[nH]c2=O)cc1`, the values for the Glucose normalisation in the assay on Mus musculus [3], with Mus musculus [4] and in the assay with Mus musculus [7] were 45%, 97% and 100%, respectively. Besides, the Effect in the assay with 3T3-L1 [5] is 109.7%; in the assay with 3T3-L1 [2], 142.3%; in the assay with 3T3-L1 [6] it was 130.6%.
Turning to `CNC(=O)N(O)Cc1ccc(OCCc2nc(-c3ccccc3)oc2C)cc1`, in the assay with Mus musculus [1], the Glucose normalisation came to 25%.
As for `Cc1oc(-c2ccccc2)nc1CCOc1ccc(CN(O)C(N)=O)cc1`, the Effect was found to be 97% with 3T3-L1 [5], 140.6% in the assay on 3T3-L1 [2] and 109.8% in the assay with 3T3-L1 [6].
As to `Cc1oc(-c2ccccc2)nc1CCOc1ccc(CN(OC(=O)Oc2ccccc2)C(N)=O)cc1`, in the assay with Mus musculus [1], the Glucose normalisation is given as 25%.
On to `COC(=O)ON(Cc1ccc(OCCc2nc(-c3ccccc3)oc2C)cc1)C(N)=O`, for which the Glucose normalisation in the assay on Mus musculus [3] stood at 28%; in the assay on Mus musculus [4], 100%; in the assay on Mus musculus [1], 80%; with Mus musculus [7], 77%. In addition, the Effect with 3T3-L1 [5] was 90.5%; in the assay on 3T3-L1 [2], 164.5%; in the assay on 3T3-L1 [6], 113%.
